{"source": "paper PMC12019328", "about": "“Discovery of an ApoE4-targeted small-molecule SirT1 enhancer for the treatment of Alzheimer’s disease” (Scientific Reports, 2025)", "target": "T1, protein arginine methyltransferase (PRMT) (Homo sapiens, UniProt Q86X55)", "T1 construct": "proteins from human neuroblastoma SH-SY5Y; endogenous in cells; host or cells: SH-SY5Y human neuroblastoma cell lysate", "T1 sequence (Q86X55 1-608)": "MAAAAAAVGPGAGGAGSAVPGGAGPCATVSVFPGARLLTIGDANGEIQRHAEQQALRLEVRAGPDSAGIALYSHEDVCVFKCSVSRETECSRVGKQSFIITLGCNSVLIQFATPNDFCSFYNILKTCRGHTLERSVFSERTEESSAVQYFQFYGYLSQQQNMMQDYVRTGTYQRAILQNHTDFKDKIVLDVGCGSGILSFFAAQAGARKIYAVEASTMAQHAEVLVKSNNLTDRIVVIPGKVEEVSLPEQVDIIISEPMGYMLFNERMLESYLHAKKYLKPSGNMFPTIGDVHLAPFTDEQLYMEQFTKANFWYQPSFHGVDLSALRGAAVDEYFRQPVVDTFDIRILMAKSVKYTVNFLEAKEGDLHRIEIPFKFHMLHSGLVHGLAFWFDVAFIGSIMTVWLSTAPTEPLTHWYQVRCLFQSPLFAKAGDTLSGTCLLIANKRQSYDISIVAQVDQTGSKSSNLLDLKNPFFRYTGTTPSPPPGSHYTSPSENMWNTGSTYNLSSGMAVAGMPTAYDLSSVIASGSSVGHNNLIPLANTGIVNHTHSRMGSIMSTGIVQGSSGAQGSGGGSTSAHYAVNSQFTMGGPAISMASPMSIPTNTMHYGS", "experiment": "Affinity purification and STRING analysis-based proteomics with SH-SY5Y cell lysates", "assay_type": "binding", "conditions": "compound clicked to agarose magnetic beads", "method": "To assist in identification of possible protein interactions of our SirT1 enhancers, affinity purification and STRING analysis-based proteomics was used, as described in Supplementary Methods. […] To assess effects of various PRMTs 1, 4, 5, 7 and 8 on SirT1, N2a-E4 cells were transfected with each of these PRMTs as described in Supplementary Methods. […]\nsupernatants were transferred to new tubes and lyophilized. Samples were reconstituted in 100 µL of 50/50/0.1 (Water/Acetonitrile/Formic Acid) prior to analysis via liquid chromatography-tandem mass spectrometry (LC-MS/MS).\nNormalized chromatographic peak areas was plotted at each time point and the half-life (T1/2) of compound in liver microsomes was determined by using the trendline equation to calculate the time at which compound abundance was 50% of that at timepoint 0 (T0).\nKinetic solubility was assessed by separately diluting a test compound solution (10 mM, 100% DMSO) into the aqueous buffer (PBS pH 7.4) and DMSO at 100 μM, 100 μL total volume.\nThe solutions were then incubated at 37°C for 90 min and centrifuged (16000xg, 5 min). An aliquot (50 µL) of each supernatant was analyzed by LC-MS/MS.\nFive standard concentrations (100, 10, 1, 0.1, and 0, DMSO) in duplicates were incubated at 37°C for 90 min and centrifuged (16000xg, 5 min). Aliquots (50 µL) of supernatant were analyzed by LC-MS/MS to create the standard curve.\nTable S2. […]"}
{"smiles": "C#Cc1ccc(CC(C)(C)NC(=O)[C@H](C)N)cc1", "note": "[DDL-220]", "values": [{"measurement": "protein interaction found by affinity purification", "value": "a protein arginine methyltransferase (PRMT) interacts with DDL-220"}]}
